# Reference: ChEMBL document CHEMBL1134328 (J Med Chem, 2001)
# Biological target: T1, Neuronal acetylcholine receptor subunit alpha-7 (Rattus norvegicus, UniProt Q05941)
# Experiment: biochemical
# Description: In vitro binding affinity towards Nicotinic acetylcholine receptor alpha7 using [125I]-alpha-Bungarotoxin in rat brain
# T1 sequence (Q05941 whole entry): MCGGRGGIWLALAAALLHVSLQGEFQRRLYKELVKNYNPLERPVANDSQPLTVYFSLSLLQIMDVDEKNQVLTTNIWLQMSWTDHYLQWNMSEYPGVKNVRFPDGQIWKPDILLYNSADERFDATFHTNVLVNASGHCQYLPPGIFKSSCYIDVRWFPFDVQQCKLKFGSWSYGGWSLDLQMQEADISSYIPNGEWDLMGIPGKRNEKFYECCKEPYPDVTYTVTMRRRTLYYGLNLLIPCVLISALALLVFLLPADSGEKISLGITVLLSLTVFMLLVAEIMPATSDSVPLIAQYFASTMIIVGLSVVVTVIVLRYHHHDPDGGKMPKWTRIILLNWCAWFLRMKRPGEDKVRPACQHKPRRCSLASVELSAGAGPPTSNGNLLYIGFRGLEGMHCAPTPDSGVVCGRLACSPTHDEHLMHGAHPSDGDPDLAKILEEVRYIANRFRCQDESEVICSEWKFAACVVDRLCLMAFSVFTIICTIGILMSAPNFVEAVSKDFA
row,SMILES,Ki [µM]
1,O=c1cccc2n1C[C@@H]1CNC[C@H]2C1 [CYTISINICLINE],0.0009

# Biological target: T1, Neuronal acetylcholine receptor subunit alpha-7
# Experiment: In vitro binding affinity towards Nicotinic acetylcholine receptor alpha7 using [125I]alpha-bungarotoxin in rat brain
# Type: tissue-based
row,SMILES,Ki [µM]
1,CN1CCCC[C@H]1[C@H]1CCc2ccccc2O1 (racemic),> 10
2,CN1CCCC[C@H]1[C@@H]1CCc2ccccc2O1 (racemic),> 10
3,CN1CCCC[C@H]1[C@@H]1CCc2cc(O)ccc2O1 (racemic),> 10
4,CN1CCCC[C@H]1[C@H]1CCc2cc(O)ccc2O1 (racemic),> 10
5,"Cc1ncccc1OCC1CCCN1 (single isomer, unassigned; form 1) [POZANICLINE]",> 10
6,"Cc1ncccc1OCC1CCCN1 (single isomer, unassigned; form 2)",> 10
